# Source: patent US20230241088A1, “COMPOSITION FOR PREVENTING OR TREATING LUNG CANCER COMPRISING ORTHO-TOPOLIN RIBOSIDE AS ACTIVE INGREDIENT” (CHUNG-ANG UNIVERSITY INDUSTRY-ACADEMY COOPERATION FOUNDATION, priority 2022, published 2023)
# Where “and” joins values, the source holds several entries; their conditions need not be identical. Equal entries are not always repeated.
# Assays:
# A549 = experiment: MTT cell viability assay, A549; assay type: cell-based, Human; settings: 48 hours
# Experimental: (§1) Human NSCLC cell lines A549, H1437, H2087, H522, and HCC827 were obtained from the Korean Cell Line Bank (KCLB, Seoul, Korea). These cells were cultured in RPMI-1640 medium (Gibco, N.Y., USA) supplemented with 10% FBS (Gibco) and 1% penicillin-streptomycin (HyClone Laboratories, Logan, Utah, USA). All cell lines were cultured under standard conditions (5% CO2, humid environment, 37° C.). A549 cells were seeded at a density of 1×10^4 cells/well and H1437, H2087, H522, HCC827, and MRCS cells at a density of 2×10^4 cells/well in 96-well plates and were cultured until cells reach approximately 70-80% confluency. The NSCLC cells were treated with plant hormones for 48 hours. Stock solution of each plant hormone was diluted with culture medium, wherein concentrations of DMSO, water, methanol, and ethanol in the culture medium were below 1% (v/v). The half-maximal inhibitory concentration (IC50) was calculated using CompuSyn software (ComboSyn Inc., Paramus, N.J., USA).
# (§2) The inhibitory effect of plant hormones and their derivatives was investigated on 5 NSCLC cell lines (A549, H1437, H2087, H522, and HCC827). The NSCLC cells were treated with ABA, Cor, ethephon, GR-24, IAA, KR, MJ, N6b, N6i, oTR, and SS-HCS at concentrations of 0.1, 0.5, 1, 5, 10, 50, and 100 μM. Cell viability and IC50 values for 48 hours were investigated by performing the MTT assay.
# H1437 = experiment: MTT cell viability assay, H1437; assay type: cell-based, Human; settings: 48 hours
# Experimental: as §1, §2
# H2087 = experiment: MTT cell viability assay, H2087; assay type: cell-based, Human; settings: 48 hours
# Experimental: as §1, §2
# H522 = experiment: MTT cell viability assay, H522; assay type: cell-based, Human; settings: 48 hours
# Experimental: as §1, §2
# HCC827 = experiment: MTT cell viability assay, HCC827; assay type: cell-based, Human; settings: 48 hours
# Experimental: as §1, §2
# NSCLC cells = experiment: MTT cell viability assay, NSCLC cells overall; assay type: cell-based, Human
# Experimental: as §1, §2
# A549 cells [1] = experiment: Mitochondrial function analysis (Seahorse XFe24, OCR); assay type: cell-based, Human
# Experimental: Mitochondrial and glycolytic functions were assessed using Seahorse XFe24 analyzer (Agilent Technologies, Lexington, Mass., USA). A549 cells were seeded in a cell culture plate at a density of 1.5×10^4 cells/well. Cells were treated with oTR (5, 10, and 50 μM) for 48 hours after achieving approximately 70-80% confluency. The glycolytic and mitochondrial functions were determined by measuring the proton efflux rate (PER) and oxygen consumption rate (OCR), respectively. Glycolytic PER (glycoPER) was obtained by subtracting mitochondria-derived protons from the total PER. The analyses were conducted according to the manufacturer's instructions.
# To measure ATP production, oligomycin, an ATPase inhibitor, was added to the cells to inhibit mitochondria-derived ATP synthesis. Then, when carbonyl cyanide-4-(trifluoromethoxy)phenylhydrazone (FCCP), a mitochondrial oxidative phosphorylation uncoupler, was added to the cells, the OCR reached the maximal level, indicating maximal mitochondrial respiration. Spare respiratory capacity (SRC) indicates the amount of extra ATP produced by oxidative phosphorylation when energy demand of the cells increases suddenly. […] To determine the mitochondrial fuel source (glucose, glutamine, and fatty acid) that was better utilized in NSCLC cells, investigation was performed on the OCR of each fuel source in the absence and presence of each inhibitor. UK5099 (for glucose), BPTES (for glutamine), and etomoxir (for fatty acid).
# A549 cells [2] = experiment: Measurement of H2O2 content; assay type: cell-based, Human; settings: oTR 5, 10, and 50 μM, 48 hours, dose-dependent
# Experimental: A549 cells were seeded at a density of 2×10^5 cells/mL in a 6-well plate and treated with oTR (5, 10, and 50 μM) or an equal volume of DMSO (control) for 48 hours. H2O2 content was measured according to a previously described method with some modifications added. Briefly, the cell pellets were extracted with 1 mL of 0.1% TCAA, and the extracts were homogenized and centrifuged at 15,000×g at 4° C. for 10 minutes. Potassium phosphate buffer (10 mM; 0.5 mL) and 1 M KI (1 mL) were added to 0.5 mL of the supernatant. The mixture was then incubated for 15 minutes at room temperature in the dark and measured at 390 nm. For normalization, protein concentration was determined using Bio-Rad protein assay kit with BSA as a standard.
# [3] = system: p-ERK, p-AKT, cleaved caspase-3, LC-III in A549 cells; experiment: Immunoblot analysis of cell lysates; assay type: cell-based, Human; settings: NSCLC cells
# Experimental: (§3) The immunoblot analysis was carried out according to a previously described method. A549 cells (4×10^5) were grown to approximately 70-80% confluency and treated with oTR (5, 10, and 50 μM) for 48 hours. The cell lysates and tissue lysates were prepared and subjected to SDS-PAGE for immunoblotting with the respective antibodies. Anti-caspase-3 (9662), anti-p-AKT (4058), and anti-AKT (9272) antibodies were purchased from Cell Signaling Technology (Danvers, Mass., USA). Anti-ERK1/ERK2 (MAB1576) and anti-p-ERK1/ERK2 (AF1018) were purchased from R&D Systems (Minneapolis, Minn., USA). Anti-LC-III (NB100-2331) antibody was purchased from Novus Biologicals (Littleton, Colo., USA). Anti-β-actin (sc-47778) and anti-GAPDH (sc-47724) antibody was purchased from Santa Cruz Biotechnology (Santa Cruz, Calif., USA).
# [4] = system: p-ERK, ERK, p-AKT, AKT, cleaved caspase-3 in NSCLC tumor tissue; experiment: Immunoblot analysis of NSCLC tumor tissue lysates; assay type: in vivo, nude mice (female, BALB/cSlc-nu/nu); settings: FIG. 7
# Experimental: as §3
# [5] = doses of 100 mg/kg or 150 mg/kg, previous study; cited from earlier work
# [6] = oTR-treated NSCLC tumor tissues
smiles,measurement,setting,value
"OC[C@H]1O[C@@H](n2cnc3c(NCc4ccccc4O)ncnc32)[C@H](O)[C@@H]1O [oTR, ortho topolin riboside]",IC50,A549,34.3 ± 4.4 µM
same,IC50,H1437,50 ± 6.55 µM
same,IC50,H2087,51.4 µM and 26.1 µM
same,IC50,H522,26.1 ± 2.47 µM
same,IC50,HCC827,29.7 ± 2.56 µM
same,viability of NSCLC cells,"NSCLC cells; 48 hours of oTR treatment, FIG. 1",reduced
same,IC50 values compared among all tested plant hormones and derivatives,"NSCLC cells; 48 hours, MTT assay",lowest IC50 values
same,glucose oxidation (mitochondrial fuel capacity),"A549 cells [1]; oTR 10 μM, FIG. 5C",did not differ
same,glutamine and fatty acid oxidations (mitochondrial fuel capacity),"A549 cells [1]; oTR 10 μM, FIG. 5C",significantly reduced
same,OCR (oxygen consumption rate),"A549 cells [1]; oTR 5, 10, and 50 μM, 48 hours, FIG. 5B",reduced
same,"basal OCR, ATP production, and SRC",A549 cells [1]; oTR-treated vs untreated A549 cells,Significant reduction
same,H2O2 content,A549 cells [2],significantly increased
same,cleaved caspase-3,[3]; 50 μM oTR,significantly increased
same,"level of LC-III, an autophagy marker",[3]; FIG. 6C,did not change
same,phosphorylated AKT (p-AKT),[3]; oTR 48 hours,significantly decreased
same,phosphorylated ERK1/2 (p-ERK),[3]; oTR 48 hours,significantly decreased
same,expression of cleaved caspase-3,[4]; oTR (150 mg/kg)-treated group,significantly increased
same,ERK expression,[4]; [6],significant increase
same,p-AKT and AKT expressions,[4]; [6],no significant changes
same,p-ERK expression,[4]; [6],significant decrease
same,acute toxicity,[5],no acute toxicity
